These results are taken from patent publication US20150344427A1 (EPIZYME, INC., priority 2012, published 2015).

One assay has as its system WSU-DLCL2 cells. Briefly: Cell Proliferation Analysis, WSU-DLCL2. The conditions noted are these: Homo sapiens, WSUDLCL2, 144 h, 6 days, Cell Titer Glo. Format: cell-based. From the text:
WSU-DLCL2 suspension cells were purchased from DSMZ (German Collection of Microorganisms and Cell Cultures, Braunschweig, Germany). RPMI/Glutamax Medium, Penicillin-Streptomycin, Heat Inactivated Fetal Bovine Serum were purchased from Life Technologies, Grand Island, N.Y., USA. V-bottom polypropylene 384-well plates were purchased from Greiner Bio-One, Monroe, N.C., USA. Cell culture 384-well white opaque plates were purchased from Perkin Elmer, Waltham, Mass., USA. Cell-Titer Glo® was purchased from Promega Corporation, Madison, Wis., USA. SpectraMax M5 plate reader was purchased from Molecular Devices LLC, Sunnyvale, Calif., USA.
WSU-DLCL2 suspension cells were maintained in growth medium (RPMI 1640 supplemented with 10% v/v heat inactivated fetal bovine serum and cultured at 37° C. under 5% CO2. Under assay conditions, cells were incubated in Assay Medium (RPMI 1640 supplemented with 20% v/v heat inactivated fetal bovine serum and 100 units/mL penicillin-streptomycin) at 37° C. under 5% CO2.
For the assessment of the effect of compounds on the proliferation of the WSU-DLCL2 cell line, exponentially growing cells were plated in 384-well white opaque plates at a density of 1250 cell/ml in a final volume of 50 μl of assay medium. A compound source plate was prepared by performing triplicate nine-point 3-fold serial dilutions in DMSO, beginning at 10 mM (final top concentration of compound in the assay was 20 μM and the DMSO was 0.2%). A 100 nL aliquot from the compound stock plate was added to its respective well in the cell plate. […] After addition of compounds, assay plates were incubated for 6 days at 37° C., 5% CO2, relative humidity >90% for 6 days. Cell viability was measured by quantization of ATP present in the cell cultures, adding 35 μl of Cell Titer Glo® reagent to the cell plates. Luminescence was read in the SpectraMax M5. The concentration inhibiting cell viability by 50% was determined using a 4-parametric fit of the normalized dose response curves.

The test system of assay [1] is H3K27 trimethylation in WSU-DLCL2 cells. Briefly: WSU-DLCL2 Methylation Assay (H3K27me3 ELISA). Format: cell-based. The following applies: Homo sapiens, WSUDLCL2, 96 hours incubation, H3K27me3 normalised to total Histone H3. From the text:
WSU-DLCL2 suspension cells were purchased from DSMZ (German Collection of Microorganisms and Cell Cultures, Braunschweig, Germany). RPMI/Glutamax Medium, Penicillin-Streptomycin, Heat Inactivated Fetal Bovine Serum, and D-PBS were purchased from Life Technologies, Grand Island, N.Y., USA. Extraction Buffer and Neutralization Buffer (5×) were purchased from Active Motif, Carlsbad, Calif., USA. Rabbit anti-Histone H3 antibody was purchased from Abcam, Cambridge, Mass., USA. Rabbit anti-H3K27me3 and HRP-conjugated anti-rabbit-IgG were purchased from Cell Signaling Technology, Danvers, Mass., USA. TMB “Super Sensitive” substrate was sourced from BioFX Laboratories, Owings Mills, Md., USA. IgG-free Bovine Serum Albumin was purchased from Jackson ImmunoResearch, West Grove, Pa., USA. PBS with Tween (10×PBST) was purchased from KPL, Gaithersburg, Md., USA. Sulfuric Acid was purchased from Ricca Chemical, Arlington, Tex., USA. Immulon ELISA plates were purchased from Thermo, Rochester, N.Y., USA. V-bottom cell culture plates were purchased from Corning Inc., Corning, N.Y., USA. V-bottom polypropylene plates were purchased from Greiner Bio-One, Monroe, N.C., USA.
WSU-DLCL2 suspension cells were maintained in growth medium (RPMI 1640 supplemented with 10% v/v heat inactivated fetal bovine serum and 100 units/mL penicillin-streptomycin) and cultured at 37° C. under 5% CO2 Under assay conditions, cells were incubated in Assay Medium (RPMI 1640 supplemented with 20% v/v heat inactivated fetal bovine serum and 100 units/mL penicillin-streptomycin) at 37° C. under 5% CO2 on a plate shaker.
WSU-DLCL2 cells were seeded in assay medium at a concentration of 50,000 cells per mL to a 96-well V-bottom cell culture plate with 200 μL per well. Compound (1 μL) from 96 well source plates was added directly to V-bottom cell plate. Plates were incubated on a titer-plate shaker at 37° C., 5% CO2 for 96 hours. After four days of incubation, plates were spun at 241×g for five minutes and medium was aspirated gently from each well of cell plate without disturbing cell pellet. Pellet was resuspended in 200 μL DPBS and plates were spun again at 241×g for five minutes. The supernatant was aspirated and cold (4° C.) Extraction buffer (100 μL) was added per well. Plates were incubated at 4° C. on orbital shaker for two hours. Plates were spun at 3427×g×10 minutes. Supernatant (80 μL per well) was transferred to its respective well in 96 well V-bottom polypropylene plate. Neutralization Buffer 5× (20 μL per well) was added to V-bottom polypropylene plate containing supernatant. V-bottom polypropylene plates containing crude histone preparation (CHP) were incubated on orbital shaker x five minutes. Crude Histone Preparations were added (2 μL per well) to each respective well into duplicate 96 well ELISA plates containing 100 μL Coating Buffer (1×PBS+BSA 0.05% w/v). Plates were sealed and incubated overnight at 4° C. The following day, plates were washed three times with 300 μL per well 1×PBST. Wells were blocked for two hours with 300 μL per well ELISA Diluent ((PBS (1×) BSA (2% w/v) and Tween20 (0.05% v/v)). Plates were washed three times with 1×PBST. For the Histone H3 detection plate, 100 μL per well were added of anti-Histone-H3 antibody (Abcam, ab1791) diluted 1:10,000 in ELISA Diluent. For H3K27 trimethylation detection plate, 100 μL per well were added of anti-H3K27me3 diluted 1:2000 in ELISA diluent. Plates were incubated for 90 minutes at room temperature. Plates were washed three times with 300 μL 1×PBST per well. For Histone H3 detection, 100 μL of HRP-conjugated anti-rabbit IgG antibody diluted to 1:6000 in ELISA diluent was added per well. For H3K27me3 detection, 100 μL of HRP conjugated anti-rabbit IgG antibody diluted to 1:4000 in ELISA diluent was added per well. Plates were incubated at room temperature for 90 minutes. Plates were washed four times with 1×PBST 300 μL per well. TMB substrate 100 μL was added per well. […]
On the technique in general: In an ELISA, binding on a coated surface is turned into a signal by an enzyme label.

Assay [2] deals with T1, EZH2 Y641F mutant (PRC2 enzyme) (Homo sapiens, UniProt Q15910, Y641F).
T1 construct: made in house; host or cells: Spodoptera frugiperda (sf9) cells, baculovirus
Briefly: PRC2 enzyme assay on peptide substrate, EZH2 Y641F mutant. Format: biochemical. The following applies: Y641F mutant PRC2 enzyme 4 nM, H3K27me2 peptide, 3H-SAM Flashplate. An excerpt:
(§1) General Materials. S-adenosylmethionine (SAM), S-adenosylhomocyteine (SAH), bicine, KCl, Tween20, dimethylsulfoxide (DMSO) and bovine skin gelatin (BSG) were purchased from Sigma-Aldrich at the highest level of purity possible. Dithiothreitol (DTT) was purchased from EMD. ^3H-SAM was purchased from American Radiolabeled Chemicals with a specific activity of 80 Ci/mmol. 384-well streptavidin Flashplates were purchased from PerkinElmer.
(§2) Peptides representative of human histone H3 residues 21-44 containing either an unmodified lysine 27 (H3K27me0) or dimethylated lysine 27 (H3K27me2) were synthesized with a C-terminal G(K-biotin) linker-affinity tag motif and a C-terminal amide cap by 21st Century Biochemicals. […] The sequences are listed below.
(§3) Human PRC2 enzymes were purified as 4-component enzyme complexes co-expressed in Spodoptera frugiperda (sf9) cells using a baculovirus expression system. […] The EED subunit contained an N-terminal FLAG tag that was used to purify the entire 4-component complex from sf9 cell lysates.
(§4) The assays were all performed in a buffer consisting of 20 mM bicine (pH=7.6), 0.5 mM DTT, 0.005% BSG and 0.002% Tween20, prepared on the day of use. Compounds in 100% DMSO (1 μL) were spotted into polypropylene 384-well V-bottom plates (Greiner) using a Platemate 2×3 outfitted with a 384-channel pipet head (Thermo). DMSO (1 μL) was added to columns 11, 12, 23, 24, rows A-H for the maximum signal control, and SAH, a known product and inhibitor of PRC2 (1 μL) was added to columns 11,12, 23, 24, rows I-P for the minimum signal control. A cocktail (40 μL) containing the wild-type PRC2 enzyme and H3K27me0 peptide or any of the Y641 mutant enzymes and H3K27me2 peptide was added by Multidrop Combi (Thermo). The compounds were allowed to incubate with PRC2 for 30 min at 25° C., then a cocktail (10 μL) containing a mixture of non-radioactive and ^3H-SAM was added to initiate the reaction (final volume=51 μL). In all cases, the final concentrations were as follows: wild-type or mutant PRC2 enzyme was 4 nM, SAH in the minimum signal control wells was 1 mM and the DMSO concentration was 1%. The assays were stopped by the addition of non-radioactive SAM (10 μL) to a final concentration of 600 μM, which dilutes the ^3H-SAM to a level where its incorporation into the peptide substrate is no longer detectable. 50 μL of the reaction in the 384-well polypropylene plate was then transferred to a 384-well Flashplate and the biotinylated peptides were allowed to bind to the streptavidin surface for at least 1 h before being washed three times with 0.1% Tween20 in a Biotek ELx405 plate washer. The plates were then read in a PerkinElmer TopCount platereader to measure the quantity of ^3H-labeled peptide bound to the Flashplate surface, measured as disintegrations per minute (dpm) or alternatively, referred to as counts per minute (cpm).
(§5) Where dpm=disintegrations per minute, cmpd=signal in assay well, and min and max are the respective minimum and maximum signal controls.
(§6) Where top and bottom are the normally allowed to float, but may be fixed at 100 or 0 respectively in a 3-parameter fit. The Hill Coefficient normally allowed to float but may also be fixed at 1 in a 3-parameter fit. Y is the % inhibition and X is the compound concentration.

Assay [3] has as its target T2, wild-type EZH2 (PRC2 enzyme) (Homo sapiens, UniProt Q15910).
T2 construct: made in house; host or cells: Spodoptera frugiperda (sf9) cells, baculovirus
Briefly: PRC2 enzyme assay on peptide substrate, wild-type EZH2. The conditions noted are these: wild-type PRC2 enzyme 4 nM, H3K27me0 peptide, 3H-SAM Flashplate; read-out: WT EZH2 IC50. Format: biochemical.
Excerpt: as §1, §2, §3, §4, §5, §6

pIC50: −log10 of the molar value.

T2 sequence (Q15910 whole entry): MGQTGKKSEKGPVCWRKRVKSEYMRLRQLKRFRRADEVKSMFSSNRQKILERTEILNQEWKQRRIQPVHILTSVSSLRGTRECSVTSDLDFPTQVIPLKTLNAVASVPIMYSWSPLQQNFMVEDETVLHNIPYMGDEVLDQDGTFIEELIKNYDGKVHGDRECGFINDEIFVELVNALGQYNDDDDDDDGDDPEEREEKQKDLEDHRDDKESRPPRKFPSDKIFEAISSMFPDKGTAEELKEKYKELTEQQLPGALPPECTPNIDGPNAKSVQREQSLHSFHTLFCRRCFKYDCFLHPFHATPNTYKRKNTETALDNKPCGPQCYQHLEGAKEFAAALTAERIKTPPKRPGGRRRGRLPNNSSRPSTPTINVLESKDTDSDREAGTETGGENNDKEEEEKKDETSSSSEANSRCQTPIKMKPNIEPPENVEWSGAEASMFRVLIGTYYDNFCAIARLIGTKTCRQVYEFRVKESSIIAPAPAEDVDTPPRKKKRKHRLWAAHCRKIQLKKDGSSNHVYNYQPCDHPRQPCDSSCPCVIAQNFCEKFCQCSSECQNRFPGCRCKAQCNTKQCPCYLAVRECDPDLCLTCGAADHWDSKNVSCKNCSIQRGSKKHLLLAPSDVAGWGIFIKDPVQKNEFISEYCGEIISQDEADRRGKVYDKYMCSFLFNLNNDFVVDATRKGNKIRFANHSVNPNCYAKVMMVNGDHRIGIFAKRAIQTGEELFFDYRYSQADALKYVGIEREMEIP
T2 sequence (O75530 whole entry partner): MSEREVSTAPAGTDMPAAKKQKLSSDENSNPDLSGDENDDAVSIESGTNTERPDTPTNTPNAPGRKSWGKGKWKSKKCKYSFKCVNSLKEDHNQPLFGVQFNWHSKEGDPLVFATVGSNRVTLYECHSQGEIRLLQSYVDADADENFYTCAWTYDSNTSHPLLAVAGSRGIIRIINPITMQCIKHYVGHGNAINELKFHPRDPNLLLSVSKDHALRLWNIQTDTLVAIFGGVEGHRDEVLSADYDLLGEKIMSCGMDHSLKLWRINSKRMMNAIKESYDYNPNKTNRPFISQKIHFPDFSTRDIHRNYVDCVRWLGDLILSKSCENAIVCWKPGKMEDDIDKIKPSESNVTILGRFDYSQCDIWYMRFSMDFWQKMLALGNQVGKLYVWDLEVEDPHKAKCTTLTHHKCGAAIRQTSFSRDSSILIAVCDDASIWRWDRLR
T2 sequence (Q15022 whole entry partner): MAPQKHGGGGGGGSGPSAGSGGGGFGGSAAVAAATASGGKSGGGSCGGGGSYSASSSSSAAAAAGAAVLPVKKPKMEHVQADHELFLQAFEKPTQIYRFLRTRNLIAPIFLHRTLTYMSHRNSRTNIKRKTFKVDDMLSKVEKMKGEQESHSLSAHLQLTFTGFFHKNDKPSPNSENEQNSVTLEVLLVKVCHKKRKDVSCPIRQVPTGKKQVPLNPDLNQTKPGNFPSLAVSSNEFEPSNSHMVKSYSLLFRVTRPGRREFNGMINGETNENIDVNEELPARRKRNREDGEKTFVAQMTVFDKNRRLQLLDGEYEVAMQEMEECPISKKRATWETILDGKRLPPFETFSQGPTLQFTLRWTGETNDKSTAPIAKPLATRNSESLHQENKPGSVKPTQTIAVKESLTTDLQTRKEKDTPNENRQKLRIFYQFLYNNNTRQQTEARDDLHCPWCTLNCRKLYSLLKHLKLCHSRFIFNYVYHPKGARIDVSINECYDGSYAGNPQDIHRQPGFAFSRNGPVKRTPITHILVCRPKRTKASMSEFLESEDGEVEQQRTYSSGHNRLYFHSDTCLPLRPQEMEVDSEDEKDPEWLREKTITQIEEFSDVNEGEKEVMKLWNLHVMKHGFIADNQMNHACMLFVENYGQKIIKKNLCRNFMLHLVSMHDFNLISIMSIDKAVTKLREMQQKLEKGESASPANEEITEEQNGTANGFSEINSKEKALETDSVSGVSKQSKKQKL
T2 sequence (Q09028 whole entry partner): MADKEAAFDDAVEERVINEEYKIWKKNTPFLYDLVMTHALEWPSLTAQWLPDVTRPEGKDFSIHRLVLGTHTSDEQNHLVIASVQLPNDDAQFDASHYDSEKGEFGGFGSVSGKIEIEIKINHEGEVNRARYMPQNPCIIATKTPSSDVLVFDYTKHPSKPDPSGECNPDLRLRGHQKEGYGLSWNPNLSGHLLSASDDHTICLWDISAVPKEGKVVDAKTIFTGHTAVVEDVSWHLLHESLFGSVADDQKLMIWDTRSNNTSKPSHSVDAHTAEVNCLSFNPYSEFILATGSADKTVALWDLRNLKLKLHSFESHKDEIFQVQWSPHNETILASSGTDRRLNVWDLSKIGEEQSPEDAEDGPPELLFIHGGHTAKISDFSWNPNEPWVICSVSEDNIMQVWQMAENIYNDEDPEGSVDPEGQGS
T1 sequence (Q15910 whole entry Y641F): as the sequence (Q15910 whole entry) above, with Y641F counted along it
T1 sequence (O75530 whole entry partner): as the sequence (O75530 whole entry partner) above
T1 sequence (Q15022 whole entry partner): as the sequence (Q15022 whole entry partner) above
T1 sequence (Q09028 whole entry partner): as the sequence (Q09028 whole entry partner) above

With `CCN(c1cc(-c2ccc(CN3CCOCC3)cc2)cc(C(=O)NCc2c(C)[nH]c(C)cc2=O)c1C)C1CCOCC1` [Compound 2, N-((2,6-dimethyl-4-oxo-1,4-dihydropyridin-3-yl)methyl)-5-(ethyl(tetrahydro-2H-pyran-4-yl)amino)-4-methyl-4′-(morpholinomethyl)-[1,1′-biphenyl]-3-carboxamide], the results for the pIC50 (with WSU-DLCL2 cells; in assay [1]) were 4.71 and 5.09, respectively.

On to `CCN(c1cc(-c2ccc(CN3CCOCC3)cc2)cc(C(=O)NCc2c(Cl)[nH]c(C)cc2=O)c1C)C1CCOCC1` [Compound 4, N-((2-chloro-6-methyl-4-oxo-1,4-dihydropyridin-3-yl)methyl)-5-(ethyl(tetrahydro-2H-pyran-4-yl)amino)-4-methyl-4′-(morpholinomethyl)-[1,1′-biphenyl]-3-carboxamide], for which the pIC50 (commonly −log10 of the IC50, conventionally taken in molar units) was 5.17 in the assay on WSU-DLCL2 cells and 5.04 in assay [1].

Take `CCN(c1cc(C#CCN2CCOCC2)cc(C(=O)NCc2c(C)[nH]c(C)cc2=O)c1C)[C@H]1CC[C@H](N(C)C)CC1` [Compound 95]: the pIC50 is 7.92 in assay [2], 4.94 in assay [1] and 7.77 in assay [3].

For the molecule `CCN(c1cc(C#CCN2CCOCC2)cc(C(=O)NCc2c(Cl)[nH]c(C)cc2=O)c1C)[C@H]1CC[C@H](N(C)C)CC1` [Compound 96], the pIC50 in assay [2] was 6.93; in assay [1] it was 5.37; in assay [3] it was 6.89.

Regarding `CCN(c1cc(C#CC2(C)COC2)cc(C(=O)NCc2c(C)[nH]c(C)cc2=O)c1C)[C@H]1CC[C@H](N(C)C)CC1` [Compound 97], the negative logarithm of the IC50 (pIC50) in assay [2] was 8.10; in assay [1], 5.04; in assay [3], 8.30.

In the case of `CCN(c1cc(-c2ccc(CN3CCOCC3)cc2)cc(C(=O)NCc2c(C)[nH]c(C)cc2=O)c1C)[C@H]1CC[C@H](N(C)C)CC1` [Compound 98], the values for the pIC50 (in the assay with WSU-DLCL2 cells; in assay [1]) were 5.36 and 5.51, respectively.

`CCN(c1cc(Cl)cc(C(=O)NCc2c(C)[nH]c(C)cc2=O)c1C)[C@H]1CC[C@H](N(C)Cc2cccc(OC)c2)CC1` [Compound 99]: the pIC50 in assay [2] is 8.30; in assay [1], 6.25; in assay [3], 9.00.

`CCN(c1cc(Cl)cc(C(=O)NCc2c(Cl)[nH]c(C)cc2=O)c1C)[C@H]1CC[C@H](N(C)Cc2cccc(OC)c2)CC1` [Compound 101]: the negative logarithm of the IC50 (pIC50) in assay [2] was 8.00; in assay [1] it was 5.52; in assay [3] it was 7.82.

For `CCN(c1cc(-c2ccc(OCCOC)cc2)cc(C(=O)NCc2c(Cl)[nH]c(C)cc2=O)c1C)[C@H]1CC[C@H](N(C)CCOC)CC1` [Compound 102], the results for the pIC50 in assay [2], in assay [1] and in assay [3] were 7.03, 4.97 and 6.82, respectively.

With `CCN(c1cc(Cl)cc(C(=O)NCc2c(C)[nH]c(C)cc2=O)c1C)C1CCN(CCOC)CC1` [Compound 103], the negative logarithm of the IC50 (pIC50) in assay [2] is 6.47; in assay [1] it was 4.38; in assay [3], 6.44.

Take `CCN(c1cc(Cl)cc(C(=O)NCc2c(Cl)[nH]c(C)cc2=O)c1C)C1CCN(CCOC)CC1` [Compound 104]: the pIC50 in assay [2] is 6.22; in assay [1], 4.31; in assay [3], 6.06.
